Values after ≈ are worked out from the molar mass of the structure shown. Values joined by “and” are separate entries in the source; they are usually repeats but may differ in a detail not shown here. Equal entries are not always repeated. Where two headings read alike, the source gives them in different places.
Columns and labels:
[1] = mice; cited from earlier work
UM-SCC-22A cells = assay: MTT cell survival assay and isobologram studies; format: cell-based, human
Experimental: Human head and neck cancer cell lines UM-SCC-1 (retromolar trigone/floor of the mouth), UM-SCC-12 (primary tumor of larynx), and UM-SCC-22A cells were obtained from clinical samples. Cells were grown in DMEM containing 10% FCS and 1% penicillin/streptomycin at 37° C. in 5% CO2.
MTT cell survival assay and isobologram studies. The concentrations of agents that inhibited cell growth by 50% (IC50) were determined from cell survival plots obtained by MTT. Triplicate wells were used for each treatment. The final concentration of DMSO (a solvent for conventional ceramides, GMZ and DOX) in the growth medium was less than 0.1% (v/v) which has no effect on cell growth and survival. Pyridinium ceramides were dissolved in sterile water or growth medium. In short, after cells (5-10×10^3/well) were seeded in 96-well-plates for 24 hr, they were treated with increasing concentrations of ceramide analogs for an additional 48 or 96 hr. For combination treatments, ceramides and chemotherapeutic agents (gemcitabine (GMZ) or doxorubicin (DOX)) were added to the growth medium simultaneously during treatment. Isobologram plots were then constructed using IC50 values of the two agents alone or in combination obtained from MTT assays. A straight line joining points on x- and y-axes represent the IC50 concentrations of two agents, and the points representing the IC50 concentrations of the combination of the two agents are represented as scatter plots on the same graphs. In general, the points that fall within the left of the straight line indicate synergism. The experiments were performed as triplicates in at least 3 independent experiments.
Human head and neck cancer cell lines UM-SCC-1 (retromolar trigone/floor of the mouth), UM-SCC-14A (SCC of anterior floor of the mouth), and UM-SCC-22A (SCC of hypopharynx) cells were obtained. Cells were grown in DMEM containing 10% FCS and 1% penicillin/streptomycin at 37° C. in 5% CO2.
MTT cell survival assay and isobologram studies. The concentrations of agents that inhibited cell growth by 50% (IC50) were determined from cell survival plots obtained by MTT assays. […] In general, the points that fall within the left of the straight line indicate synergism. The experiments were performed as triplicates in at least 3 independent experiments. Error bars represent standard deviations.

[2] = Solubility of ceramides and ceramidoids in water
[3] = test system: MCF7 breast carcinoma cells; assay: Cell proliferation and viability, Trypan blue exclusion assay; format: cell-based; conditions: for IC50: 48 h treatment, read-out: IC50, inhibitory effect on MCF7 cell growth
Experimental: FIGS. 5A-5F show the dose dependent effects of CCPS analogs on survival of MCF7 breast carcinoma cells in comparison to the activity of D-e-C6-ceramide, which is commonly used as a model of ceramide action. Cell proliferation and cell viability were determined by Trypan blue exclusion assay. These assays were performed using duplicate samples in two or three independent experiments.
Cell Proliferation: Cells were seeded into plates at a density of approx. 50% corresponding to 1×10^6 cells, in 10 ml of 10% FCS and after an over night incubation the cells were treated with LCL compounds at concentration 0-20 μM in ethanol (ethanol level was kept below 0.1%) and the changes in cell numbers after 48 h were determined and expressed as a percentage of the untreated controls.
Briefly, media was removed, cells were washed twice with PBS, detached using 1% Trypsin and centrifuged at 800 rpm. Cell pellets were resuspended in PBS and Trypan blue (Sigma Chemicals, St. Louis, Mo., USA) was added (1:1 dilution). Under light microscope, the percentage of unstained and stained cells was assessed.
To examine the anticancer activity of CCPS analogs of the invention, their inhibitory effect on MCF7 breast carcinoma cells were analyzed and compared to the activity of D-e-C6-ceramide, which is commonly used as a model of action for ceramides. Cell proliferation and cell viability were determined by Trypan blue exclusion assay.

[4] = test system: isolated rat liver mitochondria; assay: Accumulation / binding in isolated mitochondria; conditions: at 4 min
Experimental: FIG. 16. […] Bar 2 and 4 (+FCCP), ΔΨ was dissipated by addition of FCCP at 1 μM plus antimycin A at 0.5 μg/mg protein from the beginning of the experiment. Results are expressed as mean+SEM of n=3, *p=0.01 versus control.
FIG. 23. […] Trace 3 was corrected for the absorbance of TMRM.
Preparation of mitochondria from rat liver.
Mitochondrial incubation medium.
Analysis of ceramides by mass spectroscopy (MS).

[5] = test system: isolated rat liver mitochondria; assay: Mitochondrial permeabilization (ΔΨ, large-amplitude swelling); conditions: for mitochondrial large-amplitude swelling (in words): 60 μM
Experimental: Effects of ceramides on ΔΨ value (17A) and mitochondrial large-amplitude swelling (17B, 17C) Mitochondria were incubated at the condition described under Section 9.1 except that 2 μM of TPP+ was present from the beginning of the experiment. Alamethicin (ALA), a pore-forming peptide (7 μg/mg protein), was added as indicated to induce permeabilization and determine the full extend of potential changes in the parameters of interest. Where indicated ceramides at 40 μM were present from the beginning of the experiment. FIGS. 17A and 17B show time-courses of ceramides effect on ΔΨ and mitochondrial swelling. […] Degree of mitochondrial swelling was determined 30 min after ceramide treatment.
Mitochondria were incubated at the condition described under Section 9.1 except that 2 μM of TPP+ was present from the beginning of the experiment. Trace 2, no addition. […] Trace 4, FCCP at 1 μM was present from the beginning of the experiment. […] Alamethicin (ALA), a pore-forming peptide (7 μg/mg protein), was added as indicated to induce permeabilization and determine the full extent of potential changes in the parameters of interest.
Mitochondria were incubated at the condition described under “Experimental procedures”. […] Trace 2, DCCD at 100 μM was added from the beginning of the experiment. Alamethicin (ALA) was added as indicated to determine full degree of permeabilization. […] The curve was generated from experiments similar to that depicted in traces 1 and 2 with indicated concentration of DCCD present from the beginning of the experiment.
Effect of hydrophobic cations on the time-course of mitochondrial large-amplitude swelling. Alamethicin (ALA), a pore-forming peptide (7 μg/mg protein), was added as indicated to induce permeabilization and determine the full extent of mitochondrial swelling. Where indicated cations at 60 μM were added to the incubation medium. Trace 1, no additions; trace 2, C2 pyridinium ceramide; trace 3, TMRM; trace 4, cetyl pyridinium; trace 5, TPP^+. Trace 3 was corrected for the absorbance of TMRM.
Time-course (A) and dose-response (B) of the effect of C6 pyridinium dihydroceramide on mitochondrial large-amplitude swelling. Mitochondria were incubated at the condition described under “Experimental procedures”. Alamethicin (ALA), a pore-forming peptide (7 μg/mg protein), was added as indicated to induce permeabilization and determine the full extent of mitochondrial swelling. Where indicated ceramides at 30 μM were added to the incubation medium. […] Trace 1, no additions; trace 2, C6 pyridinium ceramide; trace 3, C6 pyridinium dihydroceramide. […] Degree of mitochondrial swelling was determined 15 min after ceramide treatment. Trace 1, C6 pyridinium dihydroceramide; trace 2, C6 pyridinium ceramide.

MCF7 cells = conditions: 5 μM
Experimental: FIGS. 4A-4C show the cellular levels of CCPS analogs. MCF 7 cells were treated with 5 μM concentration of CCPS analogs over the time and cellular level of the nonmetabolized CCPSs was measured by MS methodology as shown under Experimental. Results are expressed as % of concentration applied.
A parallel set of cells was used to determine cell proliferation and to prepare lipid extracts for MS analysis.
Briefly, for the indicated points, media was removed, cells were washed twice with PBS, scraped into cold PBS (2×1.0 ml), transferred to glass vials and centrifuged for 5 min at 800 rpm. Cell pellets corresponding to ˜1×10^6 cells, were fortified with the internal standards IS (C17 base D-erythro-sphingosine: 17Sph, C17 sphingosine-1-phosphate: 17Sph-1P, N-palmitoyl-D-erythro-C13 sphingosine: 13CC16-Cer and N-heptadecanoyl-D-erythro-C17shingosine: 17CC17-Cer) and extracted (2×2 ml) into a one-phase solvent system with ethyl acetate/iso-propanol/water (60/30/10 v/v). One ml of this extract was used for Pi determination after lipid re-extraction by the Bligh and Dyer method. Remaining lipid extract was evaporated, reconstituted in 100 μl of methanol, and samples were injected on the Surveyor/TSQ 7000 LC/MS system and gradient eluted from the BDS Hypersil C8, 150×3.2 mm, 3 μm particle size column, with 1.0 mM methanolic ammonium formate/2 mM aqueous ammonium formate mobile phase system. Peaks corresponding to the target analytes and IS were collected and processed using the Xcalibur software system.
Cellular level of CCPS analogs was established by MS methodology.

[6] = aqueous conditions at pH 4.5, 7.5 and 8.5 over 48 hrs
[7] = Homo sapiens, read-out: IC50 of chemotherapeutic agents
[8] = UM-SCC-22A, 48 hr, read-out: IC50, cell growth
[9] = UM-SCC-22A, 96 hr, DMEM, read-out: IC50, cell growth
[10] = Homo sapiens, UM-SCC-22A, MTT, read-out: IC50 of chemotherapeutic agents

## O=c1[nH]cc(F)c(=O)[nH]1 [5-FU, 5-fluorouracil, reference compound]
[1]
  MTD of reference drugs (known): 25 mg/kg
UM-SCC-22A cells; [7]
  IC50: 1 to 100 µM

## CCCCCCCCCCCCC/C=C/[C@@H](O)[C@H](CO)NC(C)=O [C2-Cer, D-erythro-C2-ceramide, reference compound]
[2]
  Solubility at 37° C.: 0.01 mg/mL (≈ 29.3 µM)
  Solubility at 37° C. ([mM]): (0.029) mM
[3]; 48 h
  inhibitory effect on MCF7 cell growth (in words): inactive

## CCCCCCCCCCCCC/C=C/[C@@H](O)[C@H](CO)NC(=O)CCCCCCCCCCCCCCC [C16-Cer, D-erythro-C16-ceramide, reference compound]
[2]
  Solubility at 37° C.: 0.0003 mg/mL (≈ 0.558 µM)
  Solubility at 37° C. ([mM]): (0.0005) mM

## N.N.[Cl][Pt][Cl] [CSP, cisplatinum]
[1]
  MTD of reference drugs (known): 9 mg/kg

## COc1cccc2c1C(=O)c1c(O)c3c(c(O)c1C2=O)C[C@@](O)(C(C)=O)C[C@@H]3O[C@H]1C[C@H](N)[C@H](O)[C@H](C)O1 [DNR, daunorubicin, reference compound]
UM-SCC-22A cells; [7]
  IC50: 0.1 to 0.25 µM

## COc1cccc2c1C(=O)c1c(O)c3c(c(O)c1C2=O)C[C@@](O)(C(=O)CO)C[C@@H]3O[C@H]1C[C@H](N)[C@H](O)[C@H](C)O1 [DOX, doxorubicin]
[1]
  MTD of reference drugs (known): 1 to 2 mg/kg and 2 mg/kg
UM-SCC-22A cells; [7]
  IC50: 0.1 to 0.25 µM

## CCCCCCCCCCCCC/C=C/[C@H](O)[C@H](CO)NC(=O)CCCCCCCCCCCCCCC[n+]1ccccc1.[Br-] [LCL87, L-threo-2-N-[16′-(1″-Pyridinium)-hexadecanoyl]-sphingosine Bromide]
[3]; 48 h
  inhibitory effect on MCF7 cell growth (in words): similar, concentration dependent (1.0-10.0 μM) inhibitory effect on cell growth
UM-SCC-22A cells; [8]
  IC50: ~1 µM
UM-SCC-22A cells; [9]
  IC50: ~0.3 µM

## CCCCCCCCCCCCCC=CC(O)C(CO)NC(=O)CCCCCCCCCCC[n+]1ccccc1 (stereo not shown) [LCL89]
UM-SCC-22A cells; [8]
  IC50: ~1 µM
UM-SCC-22A cells; [9]
  IC50: ~0.3 µM

## CCCCCCCCCCCCCCC[C@@H](O)[C@H](CO)NC(=O)CCCCC[n+]1ccccc1.[Br-] [LCL143, D-erythro-2-N-[6′-(1″-Pyridinium)-hexanoyl]-4,5-dihydrosphingosine Bromide]
[4]; 30 μM
  binding to mitochondria: 9.8±0.7 nmol/mg protein
[5]; 30 μM
  lag period of the induction of mitochondrial swelling versus C6-pyridinium-ceramide: three fold increase in the lag period
MCF7 cells; 1 h
  Intracellular level, % of concentration applied: 15%
MCF7 cells; 5 h
  Cellular level, % of concentration applied: 13%
MCF7 cells; 24 h
  Cellular level, % of concentration applied: 35%
[3]
  IC50: 5 µM and 5.02 µM

## CCCCCCCCCCCCC/C=C/[C@@H](O)[C@H](CO)NC(=O)C[n+]1ccccc1.[Br-] [LCL150, D-erythro-2-N-[2′-(1″-Pyridinium)-acetyl]-sphingosine Bromide]
[4]; 60 μM
  binding to mitochondria: 29.8 nmol/mg protein
[5]; 40 μM
  effect on ΔΨ and mitochondrial swelling (in words): only minor changes in the magnitude of mitochondrial swelling and the value of ΔΨ
[5]
  mitochondrial large-amplitude swelling (in words): failed to induce the same degree of swelling
MCF7 cells; 5 h
  Cellular level, % of concentration applied: ~17%
MCF7 cells; 24 h
  Cellular level, % of concentration applied: 50%
[3]
  IC50: 8 µM
[6]
  Stability (decomposition) by MS: no evidence of their decomposition
UM-SCC-22A cells; UM-SCC-22A, 96 hr
  effect on cell growth (in words): did not exert a significant effect on cell growth

## CCCCCCCCCCCCC/C=C/[C@@H](O)[C@H](CO)NC(=O)CCCCC[n+]1ccc(C=Cc2ccc(N(C)C)cc2)cc1 [LCL186, D-erythro-2-N-[6′-[1″-[4′″-[(4″″-N,N-Dimethylamino)styryl]-pyridinium]-hexanoyl]]-sphingosine Bromide]
[3]
  IC50: ~4 µM

## CCCCCCCCCCCCC/C=C/[C@@H](O)[C@H](CO)NC(=O)c1ccc[n+](CCCCCCCC)c1.[Br-] [LCL275, D-erythro-2-(1′-Octylnicotinoyl)-sphingosine Bromide]
[2]
  Solubility at 22° C.: 62 mg/mL
  Solubility at 22° C. ([mM]): (103) mM
  Solubility at 37° C.: 120 mg/mL
  Solubility at 37° C. ([mM]): (200) mM
[3]; listed as LCL-275
  IC50: 15 µM
[3]
  IC50: ~20 µM

## CCCCCCCCCCCCC/C=C/[C@@H](O)[C@H](CO)NC(=O)CCc1ccc[n+](CCCC)c1 [LCL277, D-erythro-2-N-[3′-[3″-(1″-Butyl)-pyridinium]-propionoyl]-sphingosine Bromide]
[3]; listed as LCL-277
  IC50: 13 µM
[3]
  IC50: 8.5 µM

## CCCCCCCCCCCCCCC[C@@H](O)[C@H](CO)NC(=O)C[n+]1ccccc1.[Br-] [LCL319, D-erythro-2-N-[2′-(1″-Pyridinium)-acetyl]-4,5-dihydrosphingosine Bromide]
MCF7 cells; 5 h
  Cellular level, % of concentration applied: 27%
MCF7 cells; 24 h
  Cellular level, % of concentration applied: 52%
[2]
  Solubility at 22° C.: 0.9 mg/mL
  Solubility at 22° C. ([mM]): (1.8) mM
  Solubility at 37° C.: 45 mg/mL
  Solubility at 37° C. ([mM]): (90) mM
[3]; 10 μM, 48 h
  inhibition of MCF7 cell growth: 15%
[3]
  IC50: 12.5 µM

## CN(Cc1cnc2nc(N)nc(N)c2n1)c1ccc(C(=O)N[C@@H](CCC(=O)O)C(=O)O)cc1 [MTX, methotrexate, reference compound]
UM-SCC-22A cells; [10]
  IC50: 0.1 to 0.25 µM

## CC(=O)O[C@H]1C(=O)[C@@]2(C)[C@H]([C@H](OC(=O)c3ccccc3)[C@]3(O)C[C@H](OC(=O)[C@H](O)[C@@H](NC(=O)c4ccccc4)c4ccccc4)C(C)=C1C3(C)C)[C@]1(OC(C)=O)CO[C@@H]1C[C@@H]2O [PAX, paclitaxel, reference compound]
UM-SCC-22A cells; [10]
  IC50: 1 to 100 µM

## COC(=O)c1ccccc1-c1c2ccc(=[N+](C)C)cc-2oc2cc(N(C)C)ccc12 [TMRM, reference compound]
[4]; 60 μM
  binding to mitochondria: 50±2.6 nmol/mg protein
[5]
  mitochondrial large-amplitude swelling (in words): fail to induce large-amplitude swelling

## c1ccc([P+](c2ccccc2)(c2ccccc2)c2ccccc2)cc1 [TPP^+, reference compound]
[5]
  mitochondrial large-amplitude swelling (in words): fail to induce large-amplitude swelling

## CCCCCCCCCCCCCCCC[n+]1ccccc1 [cetylpyridinium bromide, Cetylpyridinium bromide (CPB) monohydrate, reference compound]
[5]
  mitochondrial large-amplitude swelling (in words): only moderate mitochondrial swelling

## D-threo-2-N-[6′-(1″-Pyridinium)-hexanoyl]-sphingosine Bromide [LCL272]
[3]; 48 h
  inhibitory effect on MCF7 cell growth (in words): caused inhibitory effect on MCF7 cell growth

## L-erythro-2-N-[6′-(1″-Pyridinium)-hexanoyl]-sphingosine Bromide [LCL187]
[3]; 48 h
  inhibitory effect on MCF7 cell growth (in words): caused inhibitory effect on MCF7 cell growth

Reference: patent US8093393B2, “Cationic ceramides, and analogs thereof, and their use for preventing or treating cancer” (MUSC Foundation for Research Development, priority 2004, dated 2012)
